Results published in patent US20250127743A1, “USE OF BRANCHED CHAIN FATTY ACIDS (BCFAS) FOR THE TREATMENT OF INTESTINAL INFLAMMATION” (priority 2021, published 2025).
Where two headings read alike, the source gives them in different places.

Tested on: proteins conjugated to SUMO2/3 in CACO2 cells
Experiment: Immunoblot quantification of SUMO2/3-conjugated proteins (above 50 kDa) in CACO2 cells
Type: cell-based
Description: CACO2 and HeLa cells were cultivated in Minimum Essential Medium (MEM) (Eurobio) supplemented with 2 mM L-Glutamine (Invitrogen), 10% Fetal Bovine Serum (FBS, Eurobio), non-essential aminoacids (Sigma), 1 mM sodium pyruvate (Gibco) and a mixture of penicillin (10000 U/mL) and streptomycin (10 mg/mL). […] CACO2 and T84 cells were seeded in wells at a density of 1.1×10^5 cells/cm^2 and 1.7×10^5 cells/cm^2, respectively, the day before incubation with BCFAs or SCFAs.
Before treatments, cell culture medium was replaced by HBSS (Hanks' Balanced Salt Solution; Sigma). Cells were then treated as indicated in the text and directly lysed with Laemmli buffer. For BCFAs and SCFAs treatments, 100 mM stock solutions in water were first prepared from the corresponding acidic form (e.g. isobutyric acid) or from the sodium salt of the corresponding basic form (e.g. sodium isobutyrate) and then further diluted in cell culture media (HBSS). When needed, the pH of cell culture medium was set using either 0.1 M NaOH or 0.1 M HCl solution. […] For TNFα treatments, CACO2 cells were first incubated with BCFAs or SCFAs for 1 hour and then incubated with 100 ng/mL recombinant human TNFα (PeproTech). For immunoblotting and qRT-PCR analyses, cells were lysed after 30 min or 1h of incubation with TNFα, respectively. For Transepithelial electrical resistance (TEER) measurements, cells were incubated for 24 h with TNFα. Viability of cells incubated with HBSS at various pH or with BCFAs was assessed using the CellTiter-Glo® luminescent cell viability assay (Promega), according to the manufacturer's protocol.
Cell lysates and protein extracts from intestinal tissues in Laemmli buffer were boiled for 5 min, sonicated and protein content was resolved using SDS-polyacrylamide gel electrophoresis. Proteins were then transferred on PVDF membranes (GE Healthcare) and detected after incubation with specific antibodies using ECL Clarity Western blotting Substrate (BioRad). […] Quantifications of proteins were performed on a ChemiDoc Imaging System (Bio-rad). SUMO2/3-conjugated proteins levels (above 50 kDa), SUMO1-conjugated protein levels (above 50 kDa), and other specific protein levels were normalized either by the level of total proteins above 50 kDa (determined using the TGX-stain free imaging technology; Bio-rad) or by the level of actin in each lysate.

## CC(=O)O [acetic acid]
  level of SUMO2/3-conjugated proteins: significant increase

## CCC(=O)O [propionic acid]
CACO2 cells, 5h, pH~5.2, 5 mM final concentration
  level of SUMO2/3-conjugated proteins: significant increase

## CC(=O)N[C@@H](CS)C(=O)O [NAC, N-acetyl cysteine]
CACO2 cells, 30 min pre-incubation with 5 mM NAC or 10 μM DPI, then 1h 5 mM isobutyric or isovaleric acid
  effect of ROS scavenger preincubation on BCFAs-induced hyperSUMOylation: significantly block

## CCC(=O)[O-].[Na+] [sodium propionate]
CACO2 cells, pH~7.5, 5 mM final concentration
  SUMOylation pattern: does not trigger any changes

## CC(=O)[O-].[Na+] [sodium acetate]
  SUMOylation pattern: does not trigger any changes
